Data as given in patent US20240132473A1, “SULFOXIMIDE SUBSTITUTED INDAZOLE IRAK4 KINASE INHIBITOR, PREPARATION METHOD THEREOF AND USE THEREOF” (Shanghai Xunhe Pharmaceutical Technology Co. Ltd., priority 2021, published 2024).
pIC50: −log10 of the molar value.

Tests used:
IRAK4 kinase = IRAK4 kinase (Homo sapiens (Human), UniProt Q9NWZ3); test: IRAK4 kinase inhibitory activity assay (mobility shift assay, Km ATP); format: biochemical; conditions: MSA, ATP 37 μM (Km ATP)
Protocol: The inhibitory activity (IC50) of the compound on IRAK4 kinase under Km ATP was detected by mobility shift assay (MSA). Ten drug concentration gradients were set (initial concentration 1 μM, 3-fold dilution, 2 duplicate wells per concentration). […] After incubation at 28° C. for a period of time, 10 μL of termination buffer was added to terminate the reaction. The conversion rate data was read with Caliper, and then the conversion rate was converted into inhibition rate data. According to the inhibition rate data of each concentration, the IC50 of half inhibitory concentration was calculated by Logit method (Table 3).

in vivo [1] = conditions: ICR, mouse, po
Protocol: On the day of administration, observations were made approximately 0.5, 1, 2, 4, and 6 hours after the first administration. During day 2 to day 6 of the observation period, observations were made twice a day, once in the morning and once in the afternoon.
Observations included but not limited to: general conditions, behavioral activities, gait and posture, eyes, mouth, nose, gastrointestinal tract, skin hair and urogenital tract.
Weight data were expressed as mean ±standard deviation. Levene's test and one-way analysis of variance were used for comparison between groups. If there was a difference, Dunnet t test was then used.
The maximum tolerated dose refers to the dose administered when the animal was dying.

hERG potassium channel = hERG potassium channel (Homo sapiens (Human), UniProt Q12809); test: cell-based; conditions: human
Excerpt: The rapid activation of delayed rectifier outward potassium current (IKr) in humans is mainly mediated by hERG ion channel and participates in human myocardial cell repolarization. Drug blockade of this current will lead to the appearance of QT interval prolongation syndrome in clinical practice, which can easily induce acute arrhythmia and even sudden death.

in vivo [2] = conditions: rat, po; for half-life: SD, in vivo; for AUC(0-t) / Cmax / Tmax: plasma, 25 mg/kg
Protocol: SD rats were used as the test animals.
Standard curve and preparation and processing of quality control samples:
Stock solution was diluted with 50% acetonitrile-water to obtain standard working solutions of 0.04, 0.10, 0.20, 0.40, 1.00, 2.00, 4.00 μg/mL, and quality control working solutions of 0.10, 1.00, 3.00 μg/mL. […] 200 μL of acetonitrile (containing 5 ng/mL of the internal standard loratadine) was added. After the vortex oscillation for 3 minutes, the solutions were centrifuged at 15000 rpm at 4° C. for 15 minutes. 100 μL of the supernatant was taken for LC-MS/MS analysis. WinNonlin ® 8.0 was used to calculate the experimental results.

[3] = test system: TNF-α secretion in THP-1 cells; test: Inhibition of LPS-stimulated TNF-α secretion in THP-1 cells (ELISA); format: cell-based; conditions: Homo sapiens, LPS 1 μg/mL, 4.5 hours
Protocol: TNF-α is a key cytokine involved in the inflammatory process of the listed autoimmune disease, such as rheumatoid arthritis, psoriatic arthritis, ankylosing spondylitis, psoriasis, Crohn's disease, ulcerative colitis, etc. In this test, TNF-α secretion was triggered by incubation with bacterial lipopolysaccharides (LPS). […] The 96-well plate was rotated at 2000 rpm for 5 minutes, and then 50 μL of supernatant was taken. The content of TNF-α in the supernatant was determined by human ELISA kit, and IC50 value of the compound was calculated by XL-Fit (table 4).

IRAK4 kinase, sequence (Q9NWZ3 whole entry): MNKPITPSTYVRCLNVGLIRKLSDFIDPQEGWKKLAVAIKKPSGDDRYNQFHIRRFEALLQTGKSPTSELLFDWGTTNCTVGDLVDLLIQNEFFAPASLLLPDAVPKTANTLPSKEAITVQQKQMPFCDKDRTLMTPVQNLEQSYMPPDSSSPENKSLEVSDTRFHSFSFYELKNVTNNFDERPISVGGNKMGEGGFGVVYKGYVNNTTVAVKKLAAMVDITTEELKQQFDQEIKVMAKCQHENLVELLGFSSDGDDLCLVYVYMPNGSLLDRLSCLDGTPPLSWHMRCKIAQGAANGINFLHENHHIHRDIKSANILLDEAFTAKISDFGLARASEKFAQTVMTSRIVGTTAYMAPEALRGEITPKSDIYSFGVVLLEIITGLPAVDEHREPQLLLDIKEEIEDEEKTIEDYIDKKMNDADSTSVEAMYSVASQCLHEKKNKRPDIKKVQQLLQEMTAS
hERG potassium channel, sequence (Q12809 whole entry): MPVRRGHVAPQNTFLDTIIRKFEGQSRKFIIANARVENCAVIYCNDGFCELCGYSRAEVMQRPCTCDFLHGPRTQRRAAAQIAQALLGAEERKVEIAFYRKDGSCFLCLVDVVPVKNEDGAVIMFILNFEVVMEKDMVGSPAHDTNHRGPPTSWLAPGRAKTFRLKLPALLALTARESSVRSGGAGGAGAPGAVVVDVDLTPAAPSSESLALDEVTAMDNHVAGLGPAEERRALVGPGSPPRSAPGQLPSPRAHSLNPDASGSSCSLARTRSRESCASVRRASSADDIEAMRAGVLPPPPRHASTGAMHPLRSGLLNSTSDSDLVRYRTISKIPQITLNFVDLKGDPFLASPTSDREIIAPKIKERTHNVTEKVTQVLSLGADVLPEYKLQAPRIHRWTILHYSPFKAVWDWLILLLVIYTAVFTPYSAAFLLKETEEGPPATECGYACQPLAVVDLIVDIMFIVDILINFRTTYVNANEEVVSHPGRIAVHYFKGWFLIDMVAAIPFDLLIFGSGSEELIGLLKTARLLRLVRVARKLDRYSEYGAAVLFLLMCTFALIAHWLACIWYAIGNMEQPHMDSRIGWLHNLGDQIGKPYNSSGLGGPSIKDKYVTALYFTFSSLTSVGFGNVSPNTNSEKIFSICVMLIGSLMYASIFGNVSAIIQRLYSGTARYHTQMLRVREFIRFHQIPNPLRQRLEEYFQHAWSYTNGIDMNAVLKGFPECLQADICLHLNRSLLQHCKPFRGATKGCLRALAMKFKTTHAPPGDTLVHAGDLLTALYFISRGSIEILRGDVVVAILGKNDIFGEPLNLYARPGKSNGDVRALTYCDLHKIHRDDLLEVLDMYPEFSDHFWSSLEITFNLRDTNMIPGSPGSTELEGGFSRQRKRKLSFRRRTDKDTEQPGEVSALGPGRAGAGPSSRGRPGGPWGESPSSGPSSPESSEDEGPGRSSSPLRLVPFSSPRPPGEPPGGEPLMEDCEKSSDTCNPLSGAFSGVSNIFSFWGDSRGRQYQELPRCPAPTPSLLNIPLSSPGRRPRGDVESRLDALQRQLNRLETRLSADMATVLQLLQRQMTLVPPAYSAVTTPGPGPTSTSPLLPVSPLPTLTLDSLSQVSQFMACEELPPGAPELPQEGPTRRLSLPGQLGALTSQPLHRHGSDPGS

| Structure (SMILES) | pIC50 (IRAK4 kinase) | MTD at 6 days (in vivo [1]) [mg/kg] | Inhibition rate (%) of hERG current (hERG potassium channel; 5 μM) [%] | Inhibition rate (%) of hERG current (hERG potassium channel; 50 μM) [%] | Inhibition rate (%) of hERG current (hERG potassium channel; 500 μM) [%] | half-life (in vivo [2]) [h] | AUC(0-t) (in vivo [2]) [ng·h/mL] | Cmax (in vivo [2]) [ng/mL] | Tmax (in vivo [2]) [h] | pIC50 [3] |
| --- | --- | --- | --- | --- | --- | --- | --- | --- | --- | --- |
| CC(C)(O)c1cc2nn(CCS(=N)(=O)c3ccnc4ccccc34)cc2cc1NC(=O)c1cccc(C(F)(F)F)n1 (centres unmarked) [Compound I-10] | 8.96 | > 2000 | 0.1 | 0.9 | 20.3 | 4.7 | 9000 | 1510 | 6.3 | 9.00 |
| COc1cc2nn(CCS(=N)(=O)c3ccncc3)cc2cc1NC(=O)c1cnn2cccnc12 (centres unmarked) [Compound I-21] | 9.30 | > 2000 | 2.3 | 2.1 | 29.7 | 5.2 | 9400 | 1520 | 5.8 | 9.05 |
| Cc1cc(-c2nc(C(=O)Nc3cc4cn(CCS(=N)(=O)c5ccnc6ccccc56)nc4cc3C(C)(C)O)co2)ccn1 (centres unmarked) [Compound I-29] | 9.22 | > 2000 | -3.9 | 1.2 | 13.9 | 5.8 | 8130 | 1370 | 5.9 | 9.05 |
| COc1cc2nn(CCS(=N)(=O)c3ncccn3)cc2cc1NC(=O)c1cccc(C(F)(F)F)n1 (centres unmarked) [Compound I-31] | 9.22 | > 2000 | 1.7 | -0.2 | 6.7 | 4.5 | 7980 | 1300 | 4.8 | 8.89 |
| CC(C)(O)c1cc2nn(CCS(=N)(=O)c3ncnc4ccccc34)cc2cc1NC(=O)c1cccc(C(F)(F)F)n1 (centres unmarked) [Compound I-34] | 9.30 | > 2000 | -1.6 | 1.0 | 11.5 | 5.3 | 8000 | 1630 | 5.5 | 9.30 |
